Assay results: ChEMBL document CHEMBL3885861, “Open TG-GATES”

Species: Rattus norvegicus
Experiment: Open TG-GATES - Regimen: Daily Repeat
Assay type: toxicity, organism-based, Sprague-Dawley
Design: regimen Daily Repeat, gender Male, age 6 weeks
Conditions: in vivo, po, 0 mg/kg, route gavage, dose level Control; for APTT / Bas / Eos / Fbg / Hb / Ht / Lym / MCH / MCHC / MCV / Mono / Neu / PT / Plat / RBC / Ret / WBC: tissue Blood; for KIDNEY_L / KIDNEY_R / KIDNEY_TOTAL: tissue Kidney; for LIVER: tissue Liver; for A/G / ALP / ALT / AST / BUN / CRE / Ca / Cl / DBIL / GLC / IP / K / LDH / Na / PL / RALB / TBIL / TC / TG / TP / gamma-GTP: tissue Plasma

CC1=C(/C=C/C(C)=C/C=C/C(C)=C/CO)C(C)(C)CCC1 [RETINOL]
TERMINAL_BW (72 h, time 3 day): 232.6 g
APTT (72 h, time 3 day): 21.2 s
Bas (72 h, time 3 day): 0%
Eos (72 h, time 3 day): 0.8%
Fbg (72 h, time 3 day): 302.6 mg/dL
Hb (72 h, time 3 day): 13.6 g/dL
Ht (72 h, time 3 day): 39.5%
Lym (72 h, time 3 day): 81.8%
MCH (72 h, time 3 day): 21.4 pg
MCHC (72 h, time 3 day): 34.4%
MCV (72 h, time 3 day): 62 fL
Mono (72 h, time 3 day): 2.8%
Neu (72 h, time 3 day): 14%
PT (72 h, time 3 day): 16.6 s
Plat (72 h, time 3 day): 116.8 x10_4/uL
RBC (72 h, time 3 day): 637 x10_4/ul
Ret (72 h, time 3 day): 6.6%
WBC (72 h, time 3 day): 108.7 x10_2/uL
KIDNEY_L (72 h, time 3 day): 1.1 g
KIDNEY_R (72 h, time 3 day): 1.1 g
KIDNEY_TOTAL (72 h, time 3 day): 2.1 g
LIVER (72 h, time 3 day): 11 g
A/G (72 h, time 3 day): 1.2
ALP (72 h, time 3 day): 1642.8 IU/L
ALT (72 h, time 3 day): 49.4 IU/L
AST (72 h, time 3 day): 76.2 IU/L
BUN (72 h, time 3 day): 18.6 mg/dL
CRE (72 h, time 3 day): 0.1 mg/dL
Ca (72 h, time 3 day): 10.9 mg/dL
Cl (72 h, time 3 day): 106.8 meq/L
DBIL (72 h, time 3 day): 0 mg/dL
GLC (72 h, time 3 day): 199.8 mg/dL
IP (72 h, time 3 day): 6.8 mg/dL
K (72 h, time 3 day): 4.6 meq/L
LDH (72 h, time 3 day): 251.8 IU/L
Na (72 h, time 3 day): 141.2 meq/L
PL (72 h, time 3 day): 145.4 mg/dL
RALB (72 h, time 3 day): 3 g/dL
TBIL (72 h, time 3 day): 0.012 mg/dL
TC (72 h, time 3 day): 76.2 mg/dL
TG (72 h, time 3 day): 94.8 mg/dL
TP (72 h, time 3 day): 5.5 g/dL
gamma-GTP (72 h, time 3 day): 1 IU/L
TERMINAL_BW ([…], time 7 day): 257.6 g
TERMINAL_BW ([…], time 14 day): 301.9 g
TERMINAL_BW ([…], time 28 day): 374.5 g
APTT ([…], time 7 day): 20.5 s
Bas ([…], time 7 day): 0%
Eos ([…], time 7 day): 0.8%
Fbg ([…], time 7 day): 304.8 mg/dL
Hb ([…], time 7 day): 13.6 g/dL
Ht ([…], time 7 day): 38.8%
Lym ([…], time 7 day): 79.6%
MCH ([…], time 7 day): 20.9 pg
MCHC ([…], time 7 day): 35.1%
MCV ([…], time 7 day): 59.7 fL
Mono ([…], time 7 day): 2.2%
Neu ([…], time 7 day): 16.4%
PT ([…], time 7 day): 16.3 s
Plat ([…], time 7 day): 117.2 x10_4/uL
RBC ([…], time 7 day): 650.4 x10_4/ul
Ret ([…], time 7 day): 5.1%
WBC ([…], time 7 day): 114.1 x10_2/uL
APTT ([…], time 14 day): 21.4 s
Bas ([…], time 14 day): 0%
Eos ([…], time 14 day): 0.4%
Fbg ([…], time 14 day): 312 mg/dL
Hb ([…], time 14 day): 13.7 g/dL
Ht ([…], time 14 day): 38.7%
Lym ([…], time 14 day): 78%
MCH ([…], time 14 day): 20.9 pg
MCHC ([…], time 14 day): 35.4%
MCV ([…], time 14 day): 59.2 fL
Mono ([…], time 14 day): 2%
Neu ([…], time 14 day): 18.2%
PT ([…], time 14 day): 16.1 s
Plat ([…], time 14 day): 122.4 x10_4/uL
RBC ([…], time 14 day): 654 x10_4/ul
Ret ([…], time 14 day): 5.2%
WBC ([…], time 14 day): 121.8 x10_2/uL
APTT ([…], time 28 day): 24.2 s
Bas ([…], time 28 day): 0%
Eos ([…], time 28 day): 1%
Fbg ([…], time 28 day): 354.8 mg/dL
Hb ([…], time 28 day): 15.1 g/dL
Ht ([…], time 28 day): 42.6%
Lym ([…], time 28 day): 83.8%
MCH ([…], time 28 day): 19.5 pg
MCHC ([…], time 28 day): 35.5%
MCV ([…], time 28 day): 54.8 fL
Mono ([…], time 28 day): 1.6%
Neu ([…], time 28 day): 12.6%
PT ([…], time 28 day): 15.8 s
Plat ([…], time 28 day): 113.8 x10_4/uL
RBC ([…], time 28 day): 778.2 x10_4/ul
Ret ([…], time 28 day): 2.6%
WBC ([…], time 28 day): 112.5 x10_2/uL
KIDNEY_L ([…], time 7 day): 1.1 g
KIDNEY_R ([…], time 7 day): 1.1 g
KIDNEY_TOTAL ([…], time 7 day): 2.2 g
KIDNEY_L ([…], time 14 day): 1.2 g
KIDNEY_R ([…], time 14 day): 1.2 g
KIDNEY_TOTAL ([…], time 14 day): 2.4 g
KIDNEY_L ([…], time 28 day): 1.4 g
KIDNEY_R ([…], time 28 day): 1.4 g
KIDNEY_TOTAL ([…], time 28 day): 2.7 g
LIVER ([…], time 7 day): 12.5 g
LIVER ([…], time 14 day): 13.8 g
LIVER ([…], time 28 day): 15.6 g
A/G ([…], time 7 day): 1.3
ALP ([…], time 7 day): 1920 IU/L
ALT ([…], time 7 day): 39.6 IU/L
AST ([…], time 7 day): 67.6 IU/L
BUN ([…], time 7 day): 17.4 mg/dL
CRE ([…], time 7 day): 0.2 mg/dL
Ca ([…], time 7 day): 10.7 mg/dL
Cl ([…], time 7 day): 106.4 meq/L
DBIL ([…], time 7 day): 0 mg/dL
GLC ([…], time 7 day): 189 mg/dL
IP ([…], time 7 day): 6.2 mg/dL
K ([…], time 7 day): 4.4 meq/L
LDH ([…], time 7 day): 219.6 IU/L
Na ([…], time 7 day): 142 meq/L
PL ([…], time 7 day): 145.2 mg/dL
RALB ([…], time 7 day): 3.2 g/dL
TBIL ([…], time 7 day): 0.002 mg/dL
TC ([…], time 7 day): 74 mg/dL
TG ([…], time 7 day): 109.6 mg/dL
TP ([…], time 7 day): 5.6 g/dL
gamma-GTP ([…], time 7 day): 1.2 IU/L
A/G ([…], time 14 day): 1.3
ALP ([…], time 14 day): 1383 IU/L
ALT ([…], time 14 day): 34.6 IU/L
AST ([…], time 14 day): 64.6 IU/L
BUN ([…], time 14 day): 17.4 mg/dL
CRE ([…], time 14 day): 0.2 mg/dL
Ca ([…], time 14 day): 10.8 mg/dL
Cl ([…], time 14 day): 106 meq/L
DBIL ([…], time 14 day): 0 mg/dL
GLC ([…], time 14 day): 201.8 mg/dL
IP ([…], time 14 day): 6.1 mg/dL
K ([…], time 14 day): 4.2 meq/L
LDH ([…], time 14 day): 226.8 IU/L
Na ([…], time 14 day): 142 meq/L
PL ([…], time 14 day): 152 mg/dL
RALB ([…], time 14 day): 3.2 g/dL
TBIL ([…], time 14 day): 0.004 mg/dL
TC ([…], time 14 day): 74.8 mg/dL
TG ([…], time 14 day): 103 mg/dL
TP ([…], time 14 day): 5.9 g/dL
gamma-GTP ([…], time 14 day): 1.2 IU/L
A/G ([…], time 28 day): 1.2
ALP ([…], time 28 day): 1062.8 IU/L
ALT ([…], time 28 day): 43.4 IU/L
AST ([…], time 28 day): 65.4 IU/L
BUN ([…], time 28 day): 16.8 mg/dL
CRE ([…], time 28 day): 0.2 mg/dL
Ca ([…], time 28 day): 10.6 mg/dL
Cl ([…], time 28 day): 106 meq/L
DBIL ([…], time 28 day): 0 mg/dL
GLC ([…], time 28 day): 194 mg/dL
IP ([…], time 28 day): 6.3 mg/dL
K ([…], time 28 day): 4 meq/L
LDH ([…], time 28 day): 145.6 IU/L
Na ([…], time 28 day): 141.2 meq/L
PL ([…], time 28 day): 147 mg/dL
RALB ([…], time 28 day): 3.3 g/dL
TBIL ([…], time 28 day): 0.026 mg/dL
TC ([…], time 28 day): 78 mg/dL
TG ([…], time 28 day): 100.8 mg/dL
TP ([…], time 28 day): 6.1 g/dL
gamma-GTP ([…], time 28 day): 1.2 IU/L
